For one data set, the system named is DBF mice. Description: Mouse hypercalcemia assay. The conditions noted are these: oral gavage for 6 days.
In a further data set the test system is KERtr cells. Description: Keratinocyte proliferation assay. It counts as cell-based. The conditions noted are these: Homo sapiens. The protocol: 5. The Keratinocyte Proliferation Assay
This Assay is indicative for the treatment of psoriasis.
(5) The Keratinocyte Proliferation Assay:
KERtr cells (Human skin keratinocyte transformed with a retrovirus vector, obtained from ATCC) were plated in 96-well flat-bottomed plates (3000 cells/well) in 100 μl keratinocyte serum free medium supplemented with bovine pituitary extract in the absence of EGF (Life Technologies, Rockville, Md.) and incubated at 37° C. for two days. The cells were treated with various concentrations of VDR ligands (ten-fold serial dilution from 10,000 nM to 0.1 nM in triplicate), dissolved in 100 μl keratinocyte serum free medium supplemented with bovine pituitary extract in the absence of EGF and incubated at 37° C. for 72 hr. […] Potency values (IC50) values were determined as the concentration (nM) of compound that elicited a half-maximal response.

In a further data set the test system is rat osteocalcin promoter. Description: OCN (osteocalcin) promoter assay. Format: cell-based. Conditions: RG-15 (ROS 17/2.8) cells. Here is the method: 3. The OCN (Osteocalcin) Promoter Assay
The OCN Promoter Assay is an indicator and marker for osteoporosis. […] Preferred assay results are less than 50 nM.
(3) Materials and Method for the OCN Promoter Assay:
The activation of osteocalcin by VDR ligands was evaluated in a rat osteoblast-like cell line RG-15 (ROS 17/2.8) stably expressing rat osteocalcin promoter fused with luciferase reporter gene. […] Confluent RG-15 cells maintained in DMEM/F-12 medium (3:1) containing 5% FBS, 300 μg/ml G418 and at 37° C. under 5% CO2/95% air atmosphere were trypsinized (0.25% trypsin) and plated into white opaque 96-well cell culture plates (25000 cells/well). After 24 hr, cells (in DMEM/F-12 medium+2% FBS) were treated with various concentrations of compounds, dissolved in DMSO. The final DMSO concentration remained at 0.01% (v/v). After 48 hr treatment, the medium was removed, cells were lysed with 50 μl of lysis buffer (From Luciferase reporter assay system, Roche Diagnostics, Indianapolis, Ind.) and assayed for luciferase activity using the Luciferase Reporter Gene Assay kit from Boehringer Mannheim as per manufacturer's specifications.

The target of a further data set is T1, VDR (Homo sapiens, UniProt P11473).
T1 construct: the receptor expression vector pGal4-VDR-LBD (10 ng); expressed in transfected cells; host or cells: Caco-2 cells
T1 sequence (P11473 127-423 limits assumed): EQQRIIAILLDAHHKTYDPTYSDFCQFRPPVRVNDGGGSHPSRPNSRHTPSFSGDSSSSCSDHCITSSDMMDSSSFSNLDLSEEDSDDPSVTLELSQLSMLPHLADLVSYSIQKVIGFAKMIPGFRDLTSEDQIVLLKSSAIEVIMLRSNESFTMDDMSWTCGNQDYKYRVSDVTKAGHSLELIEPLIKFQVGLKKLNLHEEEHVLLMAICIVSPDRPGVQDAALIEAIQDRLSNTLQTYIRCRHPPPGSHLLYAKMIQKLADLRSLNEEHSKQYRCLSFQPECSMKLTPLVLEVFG
Description: Caco-2 cell co-transfection assay (VDR CTF). The conditions noted are these: Caco-2 cells, pGal4-VDR-LBD luciferase co-transfection; Table 1. It counts as cell-based. Here is the method: 2. The Caco-2 Cell Co-Transfection Assay:
The Caco-2 cell assay is an indicator for the undesirable condition of hypercalcemia. This co-transfection assay is a surrogate assay for in vivo calcemic activity of VDR ligands. […] Preferred assay results are greater than 1000 nM.
(2) Materials and Method for The Caco-2 Cell Assay:
Caco-2 cells, grown in phenol red free, DMEM (Invitrogen, Carlsbad, Calif.) containing 10% charcoal-stripped FCS (Hyclone, Logan, Utah), were transfected with Fugene 6 reagent (Roche Diagnostics, Indianapolis, Ind.). Cells (5000/well) were plated 18 h before transfection in a 96 well plate. The Cells were transfected with Gal4-responsive reporter pFRLuc (150 ng, Stratagene, La Jolla Calif.) and the receptor expression vector pGal4-VDR-LBD (10 ng), along with Fugene 6 reagent (0.2 μl/well). The DNA-Fugene complex was formed by incubating the mixture for 30 min at room temperature. The cells were transfected in triplicate for 5 h, and treated with various concentrations of VDR ligands (form 0.01 nM to 10,000 nM concentration range) 18 h post-transfection. The luciferase activity was quantified using Steady-Glo reagent kit (Promega, Madison, Wis.) as per manufacturer's specifications.

Another data set addresses T2, RXR-VDR heterodimer (Homo sapiens, UniProt P11473).
T2 construct: Add the Gal4-RXR-DEF and VP16-VDR-LBD; expressed in transfected cells; host or cells: SaOS-2 cells
T2 sequence (P11473 127-423 limits assumed): T1 sequence (P11473 127-423 limits assumed)
T2 sequence (P19793 201-462 partner limits assumed): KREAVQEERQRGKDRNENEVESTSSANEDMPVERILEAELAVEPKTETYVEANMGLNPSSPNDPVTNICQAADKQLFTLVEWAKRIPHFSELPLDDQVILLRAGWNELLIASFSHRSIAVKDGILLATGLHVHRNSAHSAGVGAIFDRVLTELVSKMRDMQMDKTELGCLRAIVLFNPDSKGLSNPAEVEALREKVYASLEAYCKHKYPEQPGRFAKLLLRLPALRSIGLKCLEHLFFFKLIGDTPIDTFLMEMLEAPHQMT
Description: RXR-VDR heterodimerization assay (SaOS-2 cells). Conditions: Gal4-RXR / VP16-VDR-LBD luciferase reporter, Table 1. Format: cell-based. The protocol:
1. The RXR-VDR HeterodimerAssay:
This assay provides the VDR activity of a test compound.
(1) Materials and Method for RXR-VDR Heterodimerization Assay:
Luciferase Assay Reagent: • Use Steady-Glo Luciferase Reagent from Promega (Cat #E2550) Consists of: a. E2533 Assay Substrate, lyopholized product and b. E2543 Assay Buffer. • Thaw at room temperature • Store Cell Harvesting Aspirate media from culture flask, rinse cells with HBSS and aspirate. Add trypsin and incubate. When cells appear detached, resuspend cells in growth media. Transfer into a new flask with fresh growth media for passaging the cells. Plate well plates and two extra plates A. Cell Count Mix the cell suspension using pipette Use Hematocytometer to count the cells Load cell suspension onto the hemocytometer chamber Count cells. […] In sterile flask add cell suspension to plating media. Mix. Add cells/well. Place the cells in the incubator. Cells should be about 75% confluent prior to transfection. DAY 2: Transfection Step 1: DNA and Media Add plain DMEM media to tubes for mixing the DNA Add the Reporter gene pFR-LUC Add the Gal4-RXR-DEF and VP16-VDR-LBD Step 2: FuGENE and Media Prepare plain DMEM media in a ubes for mixing FuGENE Add FuGENE 6 Transfection Reagent Incubate Step 3: FuGENE, DNA and Media Complex Add FuGENE Media complex from step 2 to DNA Media complex from step 1 Incubate Step 4: FuGENE, DNA and Media Complex to-well plate Add FuGENE-DNA-Media complex from step 3 to each plate Incubate. […] Day 4: Luciferase Assay Read the plates after drug treatment Remove part of media from all the wells and leave remainder Add Steady-Glo Luciferase Reagent mixture/wells Incubate Count each well using a Luminescence counter, Top Count NXT by Packard
Set a delay between plates to reduce the background.

Where [1] appears, read: comparison compounds, Table 4, read-out: Kera. Prolif. IC50.
Where [2] appears, read: Rattus norvegicus, comparison compounds, Table 3.
The mark [3] stands for this setting: 72 h, BrdU incorporation, Table 2, read-out: Kera. Prolif. IC50.
Where [4] appears, read: Rattus norvegicus, 48 h, 48 hr treatment, Table 1.

These results are taken from patent US7897789B2, “Vitamin D receptor modulators” (Eli Lilly and Company, priority 2003, dated 2011).

Several values for one entry are separate records, joined by “and”; a condition that tells them apart may be missing. Equal entries are not always repeated. Where two headings read alike, the source gives them in different places.

Description for DBF mice: The Mouse Hypercalcemia Assay
The Mouse Hypercalcemia Assay is a six day hypercalcemia test for toxicity and selectivity.
(4) Materials and Method for the Mouse Hypercalcemia Assay:
Weanling, virus-antibody-free, five to six weeks old female DBF mice (Harlan, Indianapolis, Ind.) are used for all the studies. Animals are allowed to acclimate to local vivarium conditions for 2 days. […] The animals then are divided into groups with 4-5 mice per group. Different doses of test compounds prepared in 10% Ethanol and 90% sesame oil are administered to mice orally via gavage for 6 days. 1α-25(OH)2D3 0.5 μg/kg/d was also given to one group of mice as the positive control. […] Raw data of group differences is assessed by analysis of variance (ANOVA) using Fisher's protected least significant difference (PLSD) where the significance level was P<0.05.

Consider `CCC(CC)(c1ccc(OCC(O)CO)c(C)c1)c1ccc(OCC(O)C(C)(C)C)c(C)c1` (stereo not shown) [BB, 3-(4-{1-Ethyl-1-[4-(2-hydroxy-3,3-dimethyl-butoxy)-3-methyl-phenyl]-propyl}-2-methyl-phenoxy)-propane-1,2-diol, reference compound], for which the “Mouse Hypercal” value in the data set with DBF mice (comparison compounds, Table 3) was 20 µg/kg/day. Besides, the IC50 with KERtr cells (setting [1]) came to 10 nM. Further, the 50% effective concentration (EC50) in the data set with rat osteocalcin promoter (setting [2]) worked out at 8.24 nM.

On to `CCC(CC)(c1ccc(OCC(=O)C(C)(C)C)c(C)c1)c1ccc(OCC(=O)C(C)(C)C)c(C)c1` [DD, reference compound], for which the “Mouse Hypercal” value with DBF mice (comparison compounds, Table 3) was 1000 µg/kg/day. The half-maximal inhibitory concentration (IC50) in the data set with KERtr cells (setting [1]) was 1060 nM. Besides, the half-maximal effective concentration (EC50) with rat osteocalcin promoter (setting [2]) was 31.1 nM.

As to `CCC(CC)(c1ccc(OCC(=O)C(C)(C)C)c(C)c1)c1ccc(OC[C@H](O)C(C)(C)C)c(C)c1` [EE, reference compound], the “Mouse Hypercal” value with DBF mice (comparison compounds, Table 3) was 1000 µg/kg/day. The 50% effective concentration (EC50) in the data set on rat osteocalcin promoter (setting [2]) was determined as 341 nM.

`CCC(CC)(c1ccc(OCC(=O)C(C)(C)C)c(C)c1)c1cc2ccc(C(=O)O)cc2s1` [Ex 7, 2-{1-[4-(3,3-dimethyl-2-oxo-butoxy)-3-methyl-phenyl]-1-ethyl-propyl}-benzo[b]thiophene-6-carboxylic acid]: the “Mouse Hypercal” value in the data set on DBF mice (serum ionized calcium 6 hours after last dosing, Table 1) was more than 300 µg/kg/day. Besides, the EC50 came to 791 nM on VDR and 1 nM in the data set on rat osteocalcin promoter (setting [4]). The 50% inhibitory concentration (IC50) with KERtr cells (setting [3]) came to 1000 nM.

Turning to `CCC(CC)(c1ccc(OCC(O)C(C)(C)C)c(C)c1)c1ccc2sc(C(=O)O)cc2c1` (stereo not shown) [Ex 14, 5-{1-ethyl-1-[4-(2-hydroxy-3,3-dimethyl-butoxy)-3-methyl-phenyl]-propyl}-benzo[b]thiophene-2-carboxylic acid], the 50% effective concentration (EC50) at VDR stood at 941 nM; in the data set with rat osteocalcin promoter (setting [4]) it was 6 nM.

With `CCC(CC)(c1ccc(OCC(O)C(C)(C)C)c(C)c1)c1ccc2sc(C(=O)NCC(=O)O)cc2c1` (stereo not shown) [Ex 16, [(5-{1-ethyl-1-[4-(2-hydroxy-3,3-dimethyl-butoxy)-3-methyl-phenyl]-propyl}-benzo[b]thiophene-2-carbonyl)-amino]-acetic acid], the EC50 is 254 nM and 108 nM at RXR-VDR heterodimer; 938 nM at VDR. For the same compound, the IC50 with KERtr cells (setting [3]) came out at 384 nM.

On to `CCC(O)(CC)COc1ccc(C(CC)(CC)c2cc3ccc(C(=O)O)cc3s2)cc1C` [Ex 22, 2-{1-Ethyl-1-[4-(2-ethyl-2-hydroxy-butoxy)-3-methyl-phenyl]-propyl}benzo[b]thiophene-6-carboxylic acid], for which the EC50 on RXR-VDR heterodimer is 458 nM and 139 nM; at VDR, 1060 nM. In addition, in the data set on KERtr cells (setting [3]), the IC50 came out at 154 nM.

For the compound `CCOC(=O)c1cc2cc(C(CC)(CC)c3ccc(OCC4(C(C)(C)C)OCCO4)c(C)c3)ccc2s1` [Ex 23, 5-{1-[4-(2-tert-Butyl-[1,3]dioxolan-2-ylmethoxy)-3-methyl-phenyl]-1-ethyl-propyl}-benzo[b]thiophene-2-carboxylic acid ethyl ester], the EC50 in the data set with rat osteocalcin promoter (setting [4]) was 161 nM.

With `CCC(CC)(c1ccc(OCC(=O)C(C)(C)C)c(C)c1)c1cc2cc(OS(C)(=O)=O)ccc2s1` [Ex 24, methanesulfonic acid 2-{1-[4-(3,3-dimethyl-2-oxo-butoxy)-3-methyl-phenyl]-1-ethyl-propyl}-benzo[b]thiophen-5-yl ester], the EC50 came out at 695 nM at RXR-VDR heterodimer and 215 nM in the data set with rat osteocalcin promoter (setting [4]). For the same compound, the concentration for half-maximal inhibition (IC50) with KERtr cells (setting [3]) was 232 nM.

Consider `CCC(CC)(c1ccc(OCC(O)C(C)(C)C)c(C)c1)c1ccc2cc(C(=O)N(C)C)sc2c1` (stereo not shown) [Ex. 4, 6-{1-ethyl-1-[4-(2-hydroxy-3,3-dimethyl-butoxy)-3-methyl-phenyl]-propyl}-benzo[b]thiophene-2-carboxylic acid dimethylamide], for which the EC50 at VDR was 555 nM; with rat osteocalcin promoter (48 hr treatment, Table 1) it was 15 nM; in the data set with rat osteocalcin promoter (setting [4]) it was 20 nM.

For the compound `CCC(CC)(c1ccc(OCC(=O)C(C)(C)C)c(C)c1)c1cc2ccc(C(=O)N(C)C)cc2s1` [Ex. 9, 2-{1-[4-(3,3-Dimethyl-2-oxo-butoxy)-3-methyl-phenyl]-1-ethyl-propyl}-benzo[b]thiophene-6-carboxylic acid dimethylamide], the EC50 turned out to be 1270 nM at VDR; 35 nM in the data set on rat osteocalcin promoter (48 hr treatment, Table 1); 41 nM in the data set with rat osteocalcin promoter (setting [4]). In the data set with KERtr cells (setting [3]), the IC50 was found to be 1000 nM.

`CCC(CC)(c1ccc(OCC(O)C(C)(C)C)c(C)c1)c1cc2ccc(C(=O)N(C)C)cc2s1` (stereo not shown) [Ex. 10, 2-{1-Ethyl-1-[4-(2-hydroxy-3,3-dimethyl-butoxy)-3-methyl-phenyl]-propyl}-benzo[b]thiophene-6-carboxylic acid dimethylamide]: the concentration giving a half-maximal response (EC50) at RXR-VDR heterodimer was 323 nM; on VDR it was 690 nM; in the data set with rat osteocalcin promoter (48 hr treatment, Table 1) it was 18 nM; in the data set on rat osteocalcin promoter (setting [4]), 24 nM. Also, the 50% inhibitory concentration (IC50) in the data set on KERtr cells (setting [3]) was 573 nM.

With `CCC(CC)(c1ccc(OCC(O)C(C)(C)C)c(C)c1)c1cc2ccc(C(=O)NCC(=O)O)cc2s1` (stereo not shown) [Ex. 12, [(2-{1-Ethyl-1-[4-(2-hydroxy-3,3-dimethyl-butoxy)-3-methyl-phenyl]-propyl}-benzo[b]thiophene-6-carbonyl)-amino]-acetic acid], the concentration for a half-maximal effect (EC50) on RXR-VDR heterodimer is 19 nM and 2 nM; on VDR it was 137 nM; in the data set with rat osteocalcin promoter (setting [4]) it was 0.3 nM. For the same compound, in the data set with KERtr cells (setting [3]), the IC50 turned out to be 1 nM.
